Results: patent US5663207A, “Gem-dichlorocyclopropanes as antitumor agents” (priority 1995, dated 1997)
Read-outs that look alike come from different tables or passages of the source.

Key:
[1] = test system: MCF-7 human breast cancer cells; assay: In vitro MCF-7 human breast cancer cell growth inhibition assay; format: cell-based; conditions: for inhibition at 1 µM: Homo sapiens
From the text: (§1) The biological evaluation of the test compounds consisted of the in vitro rat cytosolic estradiol receptor binding assay, the in vivo immature mouse uterotrophic (estrogenic) and antiuterotrophic (antiestrogenic) assays, and the in vitro suppression of the proliferation of the ER positive MCF-7 human breast cancer cell line. Estradiol (pure agonist), TAM (agonist in mice and antagonist in MCF-7), MER 25 (pure antagonist) and Analog II (antagonist in mice) were used in the assay as standards.
MCF-7 (estrogen-receptor positive) human breast cancer cells (obtained from the Michigan Cancer Foundation, Detroit, Mich.) were grown at 37° C. in 75 cm^2 tissue culture (T-75) flasks, as monolayer cultures in RPMI 1640 phenol red-free media supplemented with 2 mM L-glutamine, gentamicin (50 μg/mL), penicillin (100 units/mL), streptomycin (100 μg/mL ) and calf serum (5%). Cultures were grown in an incubator 37° C. in a humid 5% CO2 atmosphere, and fed on alternate days. Expotential growth was maintained by subculturing at eight day intervals when the cells per T-75 flask reached 10 to 12×10^6 cells. Cells were trypsinized, washed and plated in multiwell plates at a density of 5×10^4 cells/well in 3 mL of RPMI 1640 media. The cells were allowed to attach and were in logarithmic growth when the test compounds were added. The test compounds (10^-6 M) in the presence or absence of a 10-fold lower dose of estradiol were dissolved in a polyethylene glycol 400: ethanol (55:45) mixture and added in the culture media in duplicate. Control samples received vehicle alone at the same concentration used in the treatment groups. The final concentration of the vehicle mixture was 0.1% of the incubation media. Cell growth was measured on alternate days using the hemocytometric trypan blue exclusion method. Percent inhibition of MCF-7 cells was calculated as the ratio of the control mean cell count per well minus the treatment group mean cell count per well to the control mean cell count per well, multiplied by 100.
^b % MCF7 inhibition was calculated as follows: […]
Thirteen compounds, Analog II, TAM, and MER 25 were tested for their antiproliferative activity in the MCF-7 human breast cancer cell line (Table II). Compounds were tested at a concentration of 10^-6 M in the presence or absence of 10^-7 M estradiol to assess their ability to alter the growth of the calls (Table II). The 10^-6 M concentration was selected since it was reported that the inhibition of the MCF-7 cells by antiestrogens and TAM occurred either at that concentration or less, and were both selective and estrogen receptor specific. Concentrations of antiestrogens greater than 5×10^-6 M were reported to have nonspecific cytotoxic effects (BRIAND, P. AND […], A. E. (1984), "Effect of estrogen and antiestrogen on the human breast cancer cell line MCF-7 adapted to growth at low serum concentration", Cancer Research, 44, 1114).

estrogen receptor = target: T1, estrogen receptor (Rattus norvegicus, UniProt P06211); assay: Receptor binding assay: displacement of [3H]-estradiol from rat uterine cytosol; set-up: species or system rat (Sprague-Dawley); conditions: for [3H]-estradiol displacement curve (in words): rat uterine cytosolic estrogen receptor; for RBA (relative binding affinity): relative to estradiol = 100%
T1 construct: ovariectomized rat uterine cytosolic estrogen receptor preparation; from tissue; host or cells: uterine cytosol of ovariectomized Sprague-Dawley rats (immature rats from Sasco are named as uterus source, mature ovariectomized rats)
T1 sequence (P06211 1-600): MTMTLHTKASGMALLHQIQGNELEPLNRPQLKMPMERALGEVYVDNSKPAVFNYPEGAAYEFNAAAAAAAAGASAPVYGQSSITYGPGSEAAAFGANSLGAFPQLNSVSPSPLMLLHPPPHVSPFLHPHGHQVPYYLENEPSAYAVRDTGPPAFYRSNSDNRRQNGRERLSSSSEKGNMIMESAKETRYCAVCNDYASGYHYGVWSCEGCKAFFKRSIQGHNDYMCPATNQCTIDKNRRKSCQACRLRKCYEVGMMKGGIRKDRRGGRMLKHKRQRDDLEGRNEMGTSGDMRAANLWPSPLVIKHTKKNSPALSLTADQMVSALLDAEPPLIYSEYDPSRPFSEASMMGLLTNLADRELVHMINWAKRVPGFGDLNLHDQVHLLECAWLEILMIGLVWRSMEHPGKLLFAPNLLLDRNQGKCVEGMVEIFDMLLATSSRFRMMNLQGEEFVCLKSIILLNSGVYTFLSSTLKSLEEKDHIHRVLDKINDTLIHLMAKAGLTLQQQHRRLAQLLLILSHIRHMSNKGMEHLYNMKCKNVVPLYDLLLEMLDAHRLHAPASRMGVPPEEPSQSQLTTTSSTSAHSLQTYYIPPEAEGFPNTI
From the text: as §1
(§2) Vital-free immature female Swiss-Webster mice were obtained at 17-19 days of age from Sasco weighing 8-10 g, and were used in the uterotrophic and antiuterotrophic assays. Immature female Sprague-Dawley rats, obtained at 17-19 days of age from Sasco, weighing 28-33 g, were used as sources of uteri for the estradiol receptor binding assay. Animals were housed in wire topped polycarbonate cages at six animals per cage, with the environment controlled at 25° C. and a 12 h light/dark cycle. The animals received a diet of Wayne Lab Blox rodent chow and tap water ad libitum.
The RBAs of the test compounds were determined by the displacement of [^3 H]-estradiol in vitro, as described previously (DAY, B. W., […], R. A., JAIN, P., PENTO, J. T., MOUSISSIAN, G. K. AND MEYER, K. L. (1991), "Synthesis and biological evaluation of a series of 1,1-dichloro-2,2,3-triarylcyclopropanes as pure antiestrogens", Journal of Medicinal Chemistry, 34, 842; KORENMAN, S. G. (1969), "Comparative binding affinity of estrogens and its relation to estrogenic potency", Steroid, 13, 163). Mature female Sprague-Dawley rats were ovariectomized at least two weeks prior to the receptor binding experiment. Each test compound was assayed at three concentrations in duplicate over a range of 10^-3 -10^-5 M and 10^-6 -10^-8 M for the estradiol standard. The non-specific binding was determined by a parallel incubation of each compound with the addition of diethylstilbestrol to give a final concentration of 2×10^-5 M DES which was sufficient to saturate all the estrogen receptors present in the cytosolic fraction. Specific displacement for each compound was determined by subtraction of nonspecific displacement from total displacement. The [^3 H]-estradioldisplacement curve for each test compound was determined by linear repression analysis and plotted graphically. The relative binding affinity for each compound was calculated (BLISS, C.I. (1967), "The statistics in biology", McGraw Hill, Inc: New York).
^a Determined by competitive radiometric binding assay with rat
uterine cytosol as a source of receptor, [^3 H]estradiol as tracer,
and dextrancoated charcoal as absorbant for free ligand.
^c Binding affinities are expressed relative to that of estradiol =
100% (RBA = relative binding affinity) and are the average of duplicate
determinations minus nonspecific binding.
The relative binding affinities (RBAs), as determined by the competitive radiometric binding assay and measured by [^3 H]-estradiol displacement from the ovariectomized rat uterine cytosolic estrogen receptor preparation, after subtracting non-specific receptor binding, were calculated for all of the synthesized target compounds, TAM, MER 25, Analog II, and estradiol. The displacement curves were plotted as percent receptor-bound [^3 H]-estrodiol versus concentration of test compounds (not shown) and the receptor binding affinity of each compound is presented in Table II.

[2] = test system: Immature Swiss-Webster female mice (uterine weight); assay: Uterotrophic assay for estrogenic activity in immature mice; format: in vivo, mouse (Swiss-Webster); conditions: for uterine weight response (estrogenic activity, in words): doses of 5, 25 and 100 μg (total dose)
From the text: The biological evaluation of the test compounds consisted of the in vitro rat cytosolic estradiol receptor binding assay, the in vivo immature mouse uterotrophic (estrogenic) and antiuterotrophic (antiestrogenic) assays, and the in vitro suppression of the proliferation of the ER positive MCF-7 human breast cancer cell line.
as §2
Immature Swiss-Webster female mice (8-15 g) at 17-19 days of age were used. Estradiol was used in the dosage range of […] (total dose) as the assay standard. Each cyclopropyl analogue was examined at doses of 5, 25, and 100 μg (total dose). […] Estrogenic activity was measured as an increase in uterine weight produced by each test compound.

[3] = MCF7, 10^-6 M, versus control mean cell count, read-out: MCF-7 Inhibition
[4] = MCF7, 10^-6 M, printed as dash with footnote g, read-out: MCF-7 Inhibition
[5] = retested at 100, 250, and 500 μg
[6] = average of duplicate determinations minus nonspecific binding
[7] = MCF7, read-out: MCF-7 Inhibition

RBA ranking (in words) (estrogen receptor; among the compounds tested) | Compound | effect on MCF-7 cell growth (in words) ([1]; 10^-6 M) | inhibition at 1 µM [1, 3] [%] | [3H]-estradiol displacement curve (in words) (estrogen receptor) | RBA (relative binding affinity) (estrogen receptor; given as dash with footnote e) | uterine weight response (estrogenic activity, in words) [2] | inhibition at 1 µM [1, 4] [%] | uterotrophic response on retest (in words) [2, 5] | RBA (relative binding affinity) (estrogen receptor; [6]) [%] | inhibition at 1 µM [1, 7] [%] | uterotrophic response on retest (in words) ([2]; retested at 25, 100, and 250 μg)
lowest RBA | COc1ccc([C@H]2[C@@H](c3ccccc3)C2(Cl)Cl)cc1 (relative stereo) [Compound 8, 1,1-Dichloro-cis-2-(p-methoxyphenyl)-3-phenylcyclopropane] | inhibited cell growth | 25.3 | dose-dependent displacement curves with shallower slopes than their acetoxy and phenolic analogues | --^e (Less than 0.01%.) | well below the control group |  |  |  |  | 
 | COc1ccc([C@H]2[C@H](c3ccccc3)C2(Cl)Cl)cc1 (relative stereo) [Compound 16, 1,1-Dichloro-trans-2-(p-methoxyphenyl)-3-phenylcyclopropane] | did not |  | dose-dependent displacement curves with shallower slopes than their acetoxy and phenolic analogues | --^e (Less than 0.01%.) | slight increase in uterine weight at doses of 25 and 100 μg | < 10 | no significant uterotrophic responses |  |  | 
 | CC(=O)Oc1ccc([C@H]2[C@H](c3ccccc3)C2(Cl)Cl)cc1 (relative stereo) [Compound 18, 1,1-Dichloro-trans-2-(p-acetoxyphenyl)-3-phenylcyclopropane] | did not |  |  |  |  | < 10 |  | 0.25 |  | 
 | COc1ccc([C@@H]2[C@H](c3ccc(OC)cc3)C2(Cl)Cl)cc1 [Compound 14, 1,1-Dichloro-cis-2,3-bis-(p-methoxyphenyl) cyclopropane] | inhibited cell growth | 37 | dose-dependent displacement curves with shallower slopes than their acetoxy and phenolic analogues |  |  |  |  | 0.01 |  | 
 | COc1ccc(C2(c3ccc(OC)cc3)CC2(Cl)Cl)cc1 [Compound 23, 1,1-Dichloro-2,2-bis-(p-methoxyphenyl)cyclopropane] | inhibited cell growth |  | dose-dependent displacement curves with shallower slopes than their acetoxy and phenolic analogues | --^e (Less than 0.01%.) | well below the control group |  |  |  | 30 | 
 | COc1ccc(C2(c3ccc(O)cc3)CC2(Cl)Cl)cc1 (stereo not shown) [Compound 24, 1,1-Dichloro-2-(p-methoxyphenyl)-2-(p-hydroxyphenyl)cyclopropane] | only 23 inhibited cell growth |  |  |  |  |  |  | 0.02 | < 10 | 
 | Oc1ccc(C2(c3ccc(O)cc3)CC2(Cl)Cl)cc1 [Compound 25, 1,1-Dichloro-2,2-bis-(p-hydroxyphenyl) cyclopropane] | only 23 inhibited cell growth |  |  |  | well below the control group |  |  | 0.04 | < 10 | 
 | COc1ccc(C2(c3ccc(OC)cc3)C(Cl)(Cl)C23CCCCC3)cc1 [Compound 29, 1,1-Dichloro-2,2-bis-(p-methoxyphenyl)-spiro[2.5]octane] | active inhibitors of cell growth |  | dose-dependent displacement curves with shallower slopes than their acetoxy and phenolic analogues | --^e (Less than 0.01%.) | slight increase in uterine weight at doses of 25 and 100 μg |  | no significant uterotrophic responses |  | 37 | 
 | CC(=O)Oc1ccc(C2(c3ccc(OC(C)=O)cc3)C(Cl)(Cl)C23CCCCC3)cc1 [Compound 31, 1,1-Dichloro-2,2-bis-(p-acetoxyphenyl)-spiro[2.5]octane] |  |  |  |  | well below the control group |  |  | 0.05 | < 10 | 
 | COc1ccc(C2(c3ccc(OC)cc3)C(c3ccccc3)C2(Cl)Cl)cc1 (stereo not shown) [Compound 35, 1,1-Dichloro-2,2-bis-(p-methoxyphenyl)-3-phenylcyclopropane] | did not alter cell growth |  | dose-dependent displacement curves with shallower slopes than their acetoxy and phenolic analogues | --^e (Less than 0.01%.) | slight increase in uterine weight at doses of 25 and 100 μg |  |  |  | < 10 | no significant uterotrophic responses
